According to US8633245B2, “PAI-1 inhibitor” (Institute of Medicinal Molecular Design, Inc., priority 2008, dated 2014):

Legend:
recombinant human PAI-1 [1] = molecular target: T1, recombinant human PAI-1 (Homo sapiens, UniProt P05121); assay: Test Example 1: human PAI-1 inhibitory activity (tPA fluorogenic substrate, pH 7.5 Tris buffer); format: biochemical; settings: Tris buffer
T1 construct: purchased Molecular Innovations, Inc
Method: 50 mM Tris, 150 mM NaCl, 10 μg/ml BSA, 0.01% Tween80 (SIGMA-ALDRICH Corporation)

recombinant human PAI-1 [2] = molecular target: T1, recombinant human PAI-1; assay: Test Example 2: human PAI-1 inhibitory activity (tPA fluorogenic substrate, pH 7.4 HEPES buffer); format: biochemical; settings: human PAI-1
Method: 0.1 M HEPES, 0.1 M NaCl. 1 mM EDTA. 0.1% Polyethylene glycol 8,000 (Hampton Research Corporation),
2 mM Dimethyldecylphoshine oxide [Apo-10] (Fluka Corporation)

[3] = compound concentration 0.1 μM, 0.1 µM
[4] = compound concentration 0.3 μM, 0.3 µM
[5] = compound concentration 1 μM, 1 µM
[6] = compound concentration 3 μM, 3 µM

T1 sequence (P05121 24-402): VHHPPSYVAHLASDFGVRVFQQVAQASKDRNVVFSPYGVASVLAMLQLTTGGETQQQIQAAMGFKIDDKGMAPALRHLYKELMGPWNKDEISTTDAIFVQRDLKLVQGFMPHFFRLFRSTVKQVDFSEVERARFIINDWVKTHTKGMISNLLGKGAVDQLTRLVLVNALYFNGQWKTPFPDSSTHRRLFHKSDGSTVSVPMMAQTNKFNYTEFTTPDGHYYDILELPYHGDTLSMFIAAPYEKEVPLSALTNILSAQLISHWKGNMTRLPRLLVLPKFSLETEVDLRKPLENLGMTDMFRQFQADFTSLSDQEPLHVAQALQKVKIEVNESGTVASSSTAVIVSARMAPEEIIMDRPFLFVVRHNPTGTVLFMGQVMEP

Inhibition Rate of PAI-1 Activity (%) (recombinant human PAI-1 [1]; Compound Concentration 5 μM)	Inhibition Rate of PAI-1 Activity (%) (recombinant human PAI-1 [1]; Compound Concentration 10 μM)	Inhibition Rate of PAI-1 Activity (%) (recombinant human PAI-1 [2]; compound concentration 0.1 μM)	Inhibition Rate of PAI-1 Activity (%) (recombinant human PAI-1 [2]; compound concentration 0.3 μM)	Inhibition Rate of PAI-1 Activity (%) (recombinant human PAI-1 [2]; compound concentration 1 μM)	Inhibition Rate of PAI-1 Activity (%) (recombinant human PAI-1 [2]; compound concentration 3 μM)	Inhibition Rate of PAI-1 Activity (%) (recombinant human PAI-1 [2]; [3])	Inhibition Rate of PAI-1 Activity (%) (recombinant human PAI-1 [2]; [4])	Inhibition Rate of PAI-1 Activity (%) (recombinant human PAI-1 [2]; [5])	Inhibition Rate of PAI-1 Activity (%) (recombinant human PAI-1 [2]; [6])	Structure (SMILES)
18	31									O=C(O)Cc1cc(-c2ccc(OC(F)(F)F)cc2)ccc1OCc1ccccc1 [Compound 1]
84	78									CC(C)(C)c1ccc(COc2ccc(-c3ccc(OC(F)(F)F)cc3)cc2C=CC(=O)O)cc1 [Compound 4]
83	94									CC(C)(C)c1ccc(COc2ccc(-c3ccc(OC(F)(F)F)cc3)cc2NC(=O)C(=O)[O-])cc1.[Na+] [Compound 6]
		6	26	95	>99					CCCCCOc1ccc(-c2ccc(OC(F)(F)F)cc2)cc1CN(C(=O)C(=O)O)c1ccc(C(C)(C)C)cc1 [Compound 645]
		4	15	38	86					O=C(O)CCCCCCCCOc1ccc(-c2ccc(OC(F)(F)F)cc2)cc1N(CCCCc1ccccc1)C(=O)C(=O)O [Compound 646]
		27	43	95	98					CCCCCOc1ccc(-c2ccc(OC(F)(F)F)cc2)cc1CN(CC(=O)O)c1ccc(C(C)(C)C)cc1 [Compound 647]
		4	23	86	89					CCCCCOc1cc(-c2ccc(OC(F)(F)F)cc2)ccc1CN(C(=O)C(=O)O)c1ccc(C(C)(C)C)cc1 [Compound 648]
		10	64	96	97					CCCCCOc1cc(-c2ccc(OC(F)(F)F)cc2)ccc1CN(CC(=O)O)c1ccc(C(C)(C)C)cc1 [Compound 649]
		16	40	>99	>99					CCCCCCCOc1cc(N(CCCCc2ccccc2)C(=O)C(=O)O)ccc1-c1ccc(OC(F)(F)F)cc1 [Compound 650]
		0	0	15	74					COc1ccc(-c2ccc(OC(F)(F)F)cc2)cc1N(CCCCc1ccccc1)C(=O)C(=O)O [Compound 651]
		19	22	>99	>99					CCCCCCOc1ccc(-c2ccc(OC(F)(F)F)cc2)cc1N(CCCCc1ccccc1)C(=O)C(=O)O [Compound 652]
		43	95	>99	>99					CCCCCCCCOc1ccc(-c2ccc(OC(F)(F)F)cc2)cc1N(CCCCc1ccccc1)C(=O)C(=O)O [Compound 653]
		4	19	>99	>99					CCCCCOc1cc(N(CCCCc2ccccc2)C(=O)C(=O)O)ccc1-c1ccc(OC(F)(F)F)cc1 [Compound 654]
		3	0	44	97					CCCCCOc1ccc(-c2ccc(OC(F)(F)F)cc2)cc1N(CCCOCc1ccccc1)C(=O)C(=O)O [Compound 655]
		24	64	95	88					O=C(O)C(=O)N(CCCCc1ccccc1)c1cc(-c2ccc(OC(F)(F)F)cc2)ccc1OCCCC1CCCCC1 [Compound 656]
		15	20	99	>99					CCCCCN(C(=O)C(=O)O)c1cc(-c2ccc(OC(F)(F)F)cc2)ccc1OCCCOc1ccccc1 [Compound 657]
		9	20	97	>99					O=C(O)C(=O)N(CCCCc1ccccc1)c1cc(-c2ccc(OC(F)(F)F)cc2)ccc1OC1CCCC1 [Compound 658]

Inhibition Rate of PAI-1 Activity (%) (recombinant human PAI-1 [1]; Compound Concentration 5 μM)	Inhibition Rate of PAI-1 Activity (%) (recombinant human PAI-1 [1]; Compound Concentration 10 μM)	Inhibition Rate of PAI-1 Activity (%) (recombinant human PAI-1 [2]; compound concentration 0.1 μM)	Inhibition Rate of PAI-1 Activity (%) (recombinant human PAI-1 [2]; compound concentration 0.3 μM)	Inhibition Rate of PAI-1 Activity (%) (recombinant human PAI-1 [2]; compound concentration 1 μM)	Inhibition Rate of PAI-1 Activity (%) (recombinant human PAI-1 [2]; compound concentration 3 μM)	Inhibition Rate of PAI-1 Activity (%) (recombinant human PAI-1 [2]; [3])	Inhibition Rate of PAI-1 Activity (%) (recombinant human PAI-1 [2]; [4])	Inhibition Rate of PAI-1 Activity (%) (recombinant human PAI-1 [2]; [5])	Inhibition Rate of PAI-1 Activity (%) (recombinant human PAI-1 [2]; [6])	Structure (SMILES)
		12	26	>99	96					O=C(O)C(=O)N(CCCCc1ccccc1)c1cc(-c2ccc(OC(F)(F)F)cc2)ccc1OC1CCCCCC1 [Compound 659]
		6	11	27	>99					O=C(O)C(=O)N(Cc1ccc2ccccc2c1)c1ccc(-c2ccc(OC(F)(F)F)cc2)cc1 [Compound 661]
		18	28	98	95					Cc1cc(C)cc(COc2ccc(-c3ccc(OC(F)(F)F)cc3)cc2N(CCCCc2ccccc2)C(=O)C(=O)O)c1 [Compound 662]
						9	8	67	>99	CC(C)(C)C1CCC(N(C(=O)C(=O)O)c2ccc(-c3ccc(OC(F)(F)F)cc3)cc2)CC1 (stereo not drawn) [Compound 665]
						0	21	89	98	CC(C)(C)C1CCC(N(C(=O)C(=O)O)c2ccc(-c3ccc(OC(F)(F)F)cc3)cc2)CC1 (stereo not drawn) [Compound 666]
		28	34	>99	>99					CCCCCCCCCCN(C(=O)C(=O)O)c1ccc(-c2ccc(OC(F)(F)F)cc2)cc1 [Compound 669]
		6	55	97	94					CCCCCOc1ccc(-c2ccc(OC(F)(F)F)cc2)cc1N(CCCCc1cc(C)ccc1C)C(=O)C(=O)O [Compound 670]
		26	12	23	92					O=C(O)C(=O)N(CCCCc1ccccc1)c1ccc(-c2ccc3ccccc3c2)cc1 [Compound 671]
		3	15	92	>99					CCCCCOc1ccc(-c2cc(C)cc(C)c2)cc1N(CCCCc1ccccc1)C(=O)C(=O)O [Compound 672]
		0	15	>99	>99					O=C(O)C(=O)N(CCCCc1ccccc1)c1ccc(N2CCCC2)c(-c2ccc(OC(F)(F)F)cc2)c1 [Compound 673]
		5	55	>99	98					O=C(O)C(=O)N(CCCCc1ccccc1)c1ccc(N2CCCCCC2)c(-c2ccc(OC(F)(F)F)cc2)c1 [Compound 674]
		10	14	95	>99					O=C(O)C(=O)N(CCCCc1ccccc1)c1ccc(N2CCSCC2)c(-c2ccc(OC(F)(F)F)cc2)c1 [Compound 675]
		7	4	60	>99					O=C(O)C(=O)N(CCCCc1ccccc1)c1cc(-c2ccc(OC(F)(F)F)cc2)ccc1OCCCCCO [Compound 676]
		19	17	93	98					CCCCCOc1ccc(-c2ccc(C)cc2)cc1N(CCCCc1ccccc1)C(=O)C(=O)O [Compound 677]
		19	33	97	94					CCCCCOc1ccc(-c2ccc(C(C)C)cc2)cc1N(CCCCc1ccccc1)C(=O)C(=O)O [Compound 678]
			9		>99	6		84		CC(C)(C)C1CCC(CN(C(=O)C(=O)O)c2ccc(-c3ccc(OC(F)(F)F)cc3)cc2)CC1 (stereo not drawn) [Compound 679]
			9		>99	7		77		CC(C)(C)C1CCC(CN(C(=O)C(=O)O)c2ccc(-c3ccc(OC(F)(F)F)cc3)cc2)CC1 (stereo not drawn) [Compound 680]

Structure (SMILES)	Inhibition Rate of PAI-1 Activity (%) (recombinant human PAI-1 [1]; Compound Concentration 5 μM)	Inhibition Rate of PAI-1 Activity (%) (recombinant human PAI-1 [1]; Compound Concentration 10 μM)	Inhibition Rate of PAI-1 Activity (%) (recombinant human PAI-1 [2]; compound concentration 0.1 μM)	Inhibition Rate of PAI-1 Activity (%) (recombinant human PAI-1 [2]; compound concentration 0.3 μM)	Inhibition Rate of PAI-1 Activity (%) (recombinant human PAI-1 [2]; compound concentration 1 μM)	Inhibition Rate of PAI-1 Activity (%) (recombinant human PAI-1 [2]; compound concentration 3 μM)	Inhibition Rate of PAI-1 Activity (%) (recombinant human PAI-1 [2]; [3])	Inhibition Rate of PAI-1 Activity (%) (recombinant human PAI-1 [2]; [4])	Inhibition Rate of PAI-1 Activity (%) (recombinant human PAI-1 [2]; [5])	Inhibition Rate of PAI-1 Activity (%) (recombinant human PAI-1 [2]; [6])
O=C(O)CCc1cc(-c2ccc(OC(F)(F)F)cc2)ccc1OCc1ccccc1 [Compound 3]	35	68								
